According to paper PMC8703884, “Synthesis and Biological Evaluation of S-, O- and Se-Containing Dispirooxindoles” (Molecules, 2021):
Values belong to the compound of their own block, whether it stands above or below them.

Tests used:
[1] = tested on: A549 human lung adenocarcinoma epithelial cell line; experiment: MTT cytotoxicity test, A549; assay type: cell-based; conditions: 72 h incubation
[2] = tested on: MCF7 breast cancer cell line; experiment: MTT cytotoxicity test, MCF7; assay type: cell-based; conditions: Homo sapiens, 72 h incubation
Procedure: (§1) MTT test. […] Assays were performed in triplicates.

[3] = MTT cytotoxicity test, VA13; assay type: cell-based; conditions: human, VA13 SV40-transformed normal lung fibroblast cells, 72 h incubation
Procedure: as §1

[4] = MTT cytotoxicity test, Hek293T; assay type: cell-based; conditions: human, 72 h incubation
[5] = tested on: HCT116^+/+ human colon cancer cells (p53 positive); experiment: MTT cytotoxicity test, HCT116 p53+/+; conditions: for CC50: Homo sapiens, HCT-116, read-out: CC50, HCT^+/+
Excerpt: (§2) The used models included human prostate cancer cell lines LNCaP and PC3, breast cancer cell line (MCF-7), human colon cancer cells (HCT116^+/+, p53 positive, p53^+/+ and HCT116^−/−, p53 negative, p53^−/−), human lung adenocarcinoma epithelial cell line (A549), SV40-transformed normal human lung fibroblast cells (VA13), as well as human embryonic kidney 293 cells (Hek293) stably expressing SV40 large T antigen (Hek293T). The cytotoxicity of the evaluated molecules was properly assessed using a MTT assay based on the modified approach reported by Ferrari and colleagues.
(§3) To further elucidate the dominant mode of action, we used HCT116^+/+ and HCT116^−/− cells by analogy with the paper published by Shangary and colleagues. This isogenic cell line is commonly applied to investigate the p53/MDM2-dependent mode of action.
(§4) MTT test. The MTT assay was carried out according to [35] with few modifications; 3000 Cells (for HEK293T, A549 and MCF7cell lines) or 4000 cells (for VA13 cell line) were seeded in each well of a 96-well plate. […] Assays were performed in triplicates. […] The MTT solution was then discarded and 140 µL of DMSO was added. The plates were swayed on a shaker (60 rpm) to solubilize the formazan. […] The analysis of cytotoxicity and the estimation of IC50 values were carried out with the built-in functions in the GraphPad Prism program (GraphPad Software, Inc., San Diego, CA) P53 activation.

[6] = tested on: HCT116^−/− human colon cancer cells (p53 negative); experiment: MTT cytotoxicity test, HCT116 p53-/-; conditions: HCT-116, read-out: CC50, HCT^−/−
Excerpt: as §2, §3, §4

[7] = tested on: LNCaP human prostate cancer cell line; experiment: MTT cytotoxicity test, LNCaP; assay type: cell-based; conditions: for CC50: Homo sapiens, LNCaP, read-out: CC50, LNCaP; for CC50 / selectivity on LNCaP cells over PC3 cells / CC50, LNCaP: MTT test
[8] = tested on: PC3 human prostate cancer cell line; experiment: MTT cytotoxicity test, PC3; assay type: cell-based; conditions: for CC50: Homo sapiens
[9] = ratio of CC50 values of the cell line pair

melting point: 281 to 283 °C (dec.)
Compound: C=CCN1C(=O)C2(CN(C)CC23C(=O)Nc2ccccc23)NC1=S (stereo not drawn) [Compound 4c, 1′-Methyl-1-allyl-2-thioxodispiro[imidazolidine-4,3′-pyrrolidine-4′,3″-indoline]-2″,5-dione]
CC50 [1]: 45.9 ± 13.4 µM
CC50 [2]: > 100 µM
CC50 at 72 h [3]: > 100 µM
CC50 at 72 h [4]: 41.8 ± 12.4 µM
CC50 [5]: > 100 µM
CC50 [6]: 14.3 ± 6.65 µM
CC50 [7]: 9.8 ± 3.3 µM
CC50 [8]: 53.1 ± 15.8 µM

melting point: 141 to 142 °C
Compound: C=CCN1C(=O)C2(CN(C)CC23C(=O)Nc2ccc(Cl)cc23)NC1=S (stereo not drawn) [Compound 4d, 5″-Chloro-1′-methyl-1-allyl-2-thioxodispiro[imidazolidine-4,3′-pyrrolidine-4′,3″-indoline]-2″,5-dione]
CC50 [1]: 32.1 ± 6.7 µM
CC50 [2]: 68.4 ± 8.8 µM
CC50 at 72 h [3]: 30.8 ± 4.5 µM
CC50 at 72 h [4]: 11.5 ± 3 µM
CC50 [5]: 57.7 ± 18.4 µM
CC50 [6]: 40.1 ± 5.23 µM
CC50 [7]: 20 ± 3.6 µM
selectivity on LNCaP cells over PC3 cells [7]: moderate selectivity
CC50 [8]: 50 ± 9.1 µM

melting point: 155 to 156 °C
Compound: COc1ccc(N2C(=O)C3(CN(C)CC34C(=O)Nc3ccccc34)NC2=S)cc1 (stereo not drawn) [Compound 4e, 1′-Methyl-1-(4-methoxyphenyl)-2-thioxodispiro[imidazolidine-4,3′-pyrrolidine-4′,3″-indoline]-2″,5-dione]
CC50 [1]: 18.9 ± 3.1 µM
CC50 [2]: 22.8 ± 5.6 µM
CC50 at 72 h [3]: 13.2 ± 2.3 µM
CC50 at 72 h [4]: 6.5 ± 0.9 µM
CC50 [5]: 27.9 ± 6.94 µM
CC50 [6]: 36 ± 12.6 µM
CC50 [7]: 3.45 ± 0.45 µM
selectivity index S for LNCaP/PC3 cells [7, 9]: > 30
CC50 [8]: > 100 µM

melting point: 240 to 241 °C
Compound: CCOc1ccc(N2C(=O)C3(CN(C)CC34C(=O)Nc3ccccc34)NC2=S)cc1 (stereo not drawn) [Compound 4g, 1′-Methyl-1-(4-ethoxyphenyl)-2-thioxodispiro[imidazolidine-4,3′-pyrrolidine-4′,3″-indoline]-2″,5-dione]
CC50 [1]: 38.2 ± 11.5 µM
CC50 [2]: 75.2 ± 29.3 µM
CC50 at 72 h [3]: 73.6 ± 23.4 µM
CC50 at 72 h [4]: 30.2 ± 8.2 µM
CC50 [5]: > 100 µM
CC50 [6]: > 100 µM
CC50 [7]: > 100 µM
CC50 [8]: > 100 µM

melting point: 268 to 271 °C
Compound: CCOc1ccc(N2C(=O)C3(CN(C)CC34C(=O)Nc3ccc(Cl)cc34)NC2=S)cc1 (stereo not drawn) [Compound 4h, 5″-Chloro-1′-methyl-1-(4-ethoxyphenyl)-2-thioxodispiro[imidazolidine-4,3′-pyrrolidine-4′,3″-indoline]-2″,5-dione]
CC50 [1]: 6.2 ± 2.1 µM
CC50 [2]: 8.5 ± 1.2 µM
CC50 at 72 h [3]: 6.3 ± 1.1 µM
CC50 at 72 h [4]: 6.7 ± 0.9 µM
CC50 [5]: > 100 µM
CC50 [6]: > 100 µM
CC50 [7]: > 100 µM
CC50, LNCaP [7]: no activity at all
CC50, PC3 [8]: no activity at all
CC50 [8]: > 100 µM

melting point: 155 to 157 °C
Compound: Cc1ccc(N2C(=O)C3(CN(C)CC34C(=O)Nc3ccccc34)NC2=S)cc1 (stereo not drawn) [Compound 4i, 1′-Methyl-1-(p-tolyl)-2-thioxodispiro[imidazolidine-4,3′-pyrrolidine-4′,3″-indoline]-2″,5-dione]
CC50 [1]: > 100 µM
CC50 [2]: 88.2 ± 32.2 µM
CC50 at 72 h [3]: > 100 µM
CC50 at 72 h [4]: > 100 µM
CC50 [5]: > 100 µM
CC50 [6]: > 100 µM
CC50 [7]: > 100 µM
CC50 [8]: > 100 µM

melting point: 239 to 240 °C
Compound: CN1CC2(NC(=S)N(c3ccc(Cl)cc3)C2=O)C2(C1)C(=O)Nc1ccc(Cl)cc12 (stereo not drawn) [Compound 4l, 5″-Chloro-1′-methyl-1-(4-chlorophenyl)-2-thioxodispiro[imidazolidine-4,3′-pyrrolidine-4′,3″-indoline]-2″,5-dione]
CC50 [1]: 37 ± 6.5 µM
CC50 [2]: 19.1 ± 4.1 µM
CC50 at 72 h [3]: 30.4 ± 3 µM
CC50 at 72 h [4]: 34 ± 3.4 µM
CC50 [5]: 42.5 ± 9.1 µM
CC50 [6]: 57.1 ± 5.76 µM
CC50 [7]: 4.4 ± 0.67 µM
CC50 [8]: 2.2 ± 0.7 µM

melting point: 273 to 274 °C
Compound: CN1CC2(NC(=S)N(c3ccc(F)cc3)C2=O)C2(C1)C(=O)Nc1ccccc12 (stereo not drawn) [Compound 4m, 1′-Methyl-1-(4-fluorophenyl)-2-thioxodispiro[imidazolidine-4,3′-pyrrolidine-4′,3″-indoline]-2″,5-dione]
CC50 [1]: > 100 µM
CC50 [2]: 106 ± 43.1 µM
CC50 at 72 h [3]: 171 ± 15.8 µM
CC50 at 72 h [4]: > 100 µM
CC50 [5]: 23.3 ± 3.3 µM
CC50 [6]: 42.4 ± 4.7 µM
CC50 [7]: 3.4 ± 0.7 µM
CC50 [8]: 1.93 ± 0.91 µM

melting point: 261 to 262 °C
Compound: CN1CC2(NC(=S)N(Cc3cccc(Cl)c3)C2=O)C2(C1)C(=O)Nc1ccc(Cl)cc12 (stereo not drawn) [Compound 4p, 5″-Chloro-1′-methyl-1-(3-chlorobenzyl)-2-thioxodispiro[imidazolidine-4,3′-pyrrolidine-4′,3″-indoline]-2″,5-dione]
CC50 [1]: 11.3 ± 2.4 µM
CC50 [2]: 6.6 ± 1 µM
CC50 at 72 h [3]: 12.3 ± 1.6 µM
CC50 at 72 h [4]: 18.4 ± 1.7 µM
CC50 [5]: 34.2 ± 5.7 µM
selectivity S against HCT116^+/+ over HCT116^−/− [5, 9]: > 2.9
CC50 [6]: > 100 µM
CC50 [7]: 4.1 ± 0.1 µM
CC50 [8]: 2.2 ± 1.4 µM

Continued, compound first:

Compound: CN1CC2(NC(=S)N(Cc3ccccc3)C2=O)C2(C1)C(=O)Nc1ccccc12 (stereo not drawn) [Compound 4a, 1′-Methyl-1-benzyl-2-thioxodispiro[imidazolidine-4,3′-pyrrolidine-4′,3″-indoline]-2″,5-dione]
CC50 [1]: 20.3 ± 3.7 µM
CC50 [2]: 31.3 ± 6.7 µM
CC50 at 72 h [3]: 16.1 ± 2.5 µM
CC50 at 72 h [4]: 9.8 ± 1.6 µM
CC50 [5]: 66.2 ± 11.7 µM
CC50 [6]: 40.1 ± 19.1 µM
CC50 [7]: 12.5 ± 2.1 µM
selectivity on LNCaP cells over PC3 cells [7]: moderate selectivity
CC50 [8]: 30.1 ± 9.1 µM
melting point: 189 to 190 °C

Compound: CN1CC2(NC(=S)N(Cc3ccccc3)C2=O)C2(C1)C(=O)Nc1ccc(Cl)cc12 (stereo not drawn) [Compound 4b, 5″-Chloro-1′-methyl-1-benzyl-2-thioxodispiro[imidazolidine-4,3′-pyrrolidine-4′,3″-indoline]-2″,5-dione]
CC50 [1]: 9.1 ± 2.2 µM
CC50 [2]: 24.3 ± 2.3 µM
CC50 at 72 h [3]: 21.4 ± 1.9 µM
CC50 at 72 h [4]: 9.5 ± 1.7 µM
CC50 [5]: 60.7 ± 13.8 µM
CC50 [6]: 30 ± 15.2 µM
CC50 [7]: 10.3 ± 1.1 µM
selectivity on LNCaP cells over PC3 cells [7]: moderate selectivity
CC50 [8]: 49 ± 12.7 µM
melting point: 152 to 153 °C

Compound: Cc1ccc(N2C(=O)C3(CN(C)CC34C(=O)Nc3ccc(Cl)cc34)NC2=S)cc1 (stereo not drawn) [Compound 4j, 5″-Chloro-1′-methyl-1-(p-tolyl)-2-thioxodispiro[imidazolidine-4,3′-pyrrolidine-4′,3″-indoline]-2″,5-dione]
CC50 [1]: 62 ± 8.3 µM
CC50 [2]: 13.7 ± 2.1 µM
CC50 at 72 h [3]: 27.2 ± 5.3 µM
CC50 at 72 h [4]: 17.4 ± 2 µM
CC50 [5]: > 100 µM
CC50 [6]: > 100 µM
CC50 [7]: > 100 µM
CC50 [8]: > 100 µM
melting point: 159 to 160 °C

Compound: CN1CC2(NC(=S)N(Cc3cccc(Cl)c3)C2=O)C2(C1)C(=O)Nc1ccccc12 (stereo not drawn) [Compound 4o, 1′-Methyl-1-(3-chlorobenzyl)-2-thioxodispiro[imidazolidine-4,3′-pyrrolidine-4′,3″-indoline]-2″,5-dione]
CC50 [1]: 53.4 ± 11.2 µM
CC50 [2]: 23.2 ± 3.6 µM
CC50 at 72 h [3]: 36.3 ± 3.2 µM
CC50 at 72 h [4]: 48 ± 5.3 µM
CC50 [5]: > 100 µM
CC50 [6]: > 100 µM
CC50 [7]: > 100 µM
CC50 [8]: > 100 µM
melting point: 273 to 274 °C

Compound: CN1CC2(NC(=S)N(c3ccc(F)c(Cl)c3)C2=O)C2(C1)C(=O)Nc1ccccc12 (stereo not drawn) [Compound 4q, 1′-Methyl-1-(3-chloro-4-fluorophenyl)-2-thioxodispiro[imidazolidine-4,3′-pyrrolidine-4′,3″-indoline]-2″,5-dione]
CC50 [1]: > 100 µM
CC50 [2]: 62.2 ± 27.7 µM
CC50 at 72 h [3]: 57.9 ± 18.3 µM
CC50 at 72 h [4]: 69.1 ± 21 µM
CC50 [5]: > 100 µM
CC50 [6]: > 100 µM
CC50 [7]: > 100 µM
CC50 [8]: > 100 µM
melting point: 252 to 254 °C

Compound: CN1CC2(NC(=S)N(c3ccc(F)c(Cl)c3)C2=O)C2(C1)C(=O)Nc1ccc(Cl)cc12 (stereo not drawn) [Compound 4r, 5″-Chloro-1′-methyl-1-(3-chloro-4-fluorophenyl)-2-thioxodispiro[imidazolidine-4,3′-pyrrolidine-4′,3″-indoline]-2″,5-dione]
CC50 [1]: 14.1 ± 1.8 µM
CC50 [2]: 14.1 ± 1.2 µM
CC50 at 72 h [3]: 13.9 ± 1.5 µM
CC50 at 72 h [4]: 11.1 ± 1.3 µM
CC50 [5]: > 100 µM
CC50 [6]: > 100 µM
CC50 [7]: > 100 µM
CC50, LNCaP [7]: absolutely inactive
CC50, PC3 [8]: absolutely inactive
CC50 [8]: > 100 µM
melting point: 177 to 180 °C

Compound: CN1CC2(NC(=S)N(C3CC3)C2=O)C2(C1)C(=O)Nc1ccccc12 (stereo not drawn) [Compound 4s, 1′-Methyl-1-cyclopropyl-2-thioxodispiro[imidazolidine-4,3′-pyrrolidine-4′,3″-indoline]-2″,5-dione]
CC50 [1]: > 100 µM
CC50 [2]: > 100 µM
CC50 at 72 h [3]: > 100 µM
CC50 at 72 h [4]: > 100 µM
CC50 [5]: > 100 µM
CC50 [6]: > 100 µM
CC50 [7]: > 100 µM
CC50 [8]: > 100 µM
melting point: 272 to 273 °C (dec.)
